The source of these data is the NIST ThermoML archive (doi:10.1021/acs.jced.7b00944).

For the data set the following is noted: 298.2 K, 101.33 kPa, Liquid; for viscosity: Falling or rolling sphere viscometry; for mass density: Vibrating tube method.

± gives the expanded uncertainty stated by the source.

As for `C=CC(C)(O)CCC=C(C)C` (stereo not drawn) [3,7-dimethyl-1,6-octadien-3-ol], the viscosity came to 4.238 ± 0.51 mPa·s and the mass density came out at 856.25 ± 6.1 kg/m3.
For `C=C(C)[C@H]1CC=C(C)CC1` [(R)-1-methyl-4-(1-methylethenyl)cyclohexene], in that order: 0.972 ± 0.12 mPa·s and 840.73 ± 6 kg/m3.
On to `CCO` [ethanol], for which the viscosity is 1.04 ± 0.12 mPa·s and the mass density was found to be 786.1 ± 6 kg/m3.
For `OCC(O)CO` [glycerol], in that order: 873.6 ± 140 mPa·s and 1257.7 ± 6.1 kg/m3.

Broadly, the viscosity is the resistance of a fluid to flow. What is called mass density is the mass of a sample divided by its volume.
